Key:
Test in all cases: relative viability (nuclei count vs DMSO), 5 days (fraction); higher = more cells survive
[1] = compound: CC1=CC(=NN1)NC2=CC(=NC(=N2)/C=C/C3=CC=CC=C3)N4CCN(CC4)C + NC(=O)Nc1cc(-c2cccc(F)c2)sc1C(=O)N[C@H]1CCCNC1 [AZD7762] (partner 0.2 µM)
Method in brief: (§1)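 Five library-drug doses in √10 steps were combined with a fixed anchor-drug dose, or a single drug was given alone, by pin tool to lung cancer cell lines in 1536-well plates the day after seeding. Nuclei were stained and counted after 5 days. Relative viability is the nuclei count in treated wells over that in vehicle wells, taken as the median of duplicate plates.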

[2] = compound: CC1=CC(=NN1)NC2=CC(=NC(=N2)/C=C/C3=CC=CC=C3)N4CCN(CC4)C + O=C(c1cc(Cc2n[nH]c(=O)c3ccccc23)ccc1F)N1CCN(C(=O)C2CC2)CC1 [Olaparib] (partner 8 µM)
Method in brief: as §1

[3] = compound: CC1=CC(=NN1)NC2=CC(=NC(=N2)/C=C/C3=CC=CC=C3)N4CCN(CC4)C + Nc1nc2[nH]cc(CCc3ccc(C(=O)N[C@@H](CCC(=O)O)C(=O)O)cc3)c2c(=O)[nH]1 [Pemetrexed] (partner 0.2 µM)
Method in brief: as §1

Obatoclax + Olaparib = compound: COC1=CC(c2cc3ccccc3[nH]2)=N/C1=C\c1[nH]c(C)cc1C [Obatoclax] + O=C(c1cc(Cc2n[nH]c(=O)c3ccccc23)ccc1F)N1CCN(C(=O)C2CC2)CC1 [Olaparib] (partner 8 µM)
Method in brief: as §1

| Cell Line | relative viability ([1]; first compound 0.08 µM) | relative viability ([1]; first compound 0.253 µM) | relative viability ([1]; first compound 0.8 µM) | relative viability ([1]; first compound 2.53 µM) | relative viability ([1]; first compound 8 µM) | relative viability ([2]; first compound 0.08 µM) | relative viability ([2]; first compound 0.253 µM) | relative viability ([2]; first compound 0.8 µM) | relative viability ([2]; first compound 2.53 µM) | relative viability ([2]; first compound 8 µM) | relative viability ([3]; first compound 0.08 µM) | relative viability ([3]; first compound 0.253 µM) | relative viability ([3]; first compound 0.8 µM) | relative viability ([3]; first compound 2.53 µM) | relative viability ([3]; first compound 8 µM) | relative viability (Obatoclax + Olaparib; first compound 0.01 µM) | relative viability (Obatoclax + Olaparib; first compound 0.03162 µM) | relative viability (Obatoclax + Olaparib; first compound 0.1 µM) | relative viability (Obatoclax + Olaparib; first compound 0.3162 µM) | relative viability (Obatoclax + Olaparib; first compound 1 µM) |
| --- | --- | --- | --- | --- | --- | --- | --- | --- | --- | --- | --- | --- | --- | --- | --- | --- | --- | --- | --- | --- |
| NCI-H1437 | 1.17 | 1.17 | 1.21 | 1.05 | 0.416 | 0.603 | 0.664 | 0.631 | 0.416 | 0.138 | 0.422 | 0.325 | 0.295 | 0.212 | 0.162 | 0.634 | 0.623 | 0.626 | 0.623 | 0.533 |
| NCI-H1648 | 0.578 | 0.691 | 0.663 | 0.626 | 0.513 | 0.979 | 0.797 | 0.813 | 0.747 | 0.361 | 0.689 | 0.803 | 0.836 | 0.745 | 0.47 | 1.07 | 0.793 | 0.91 | 0.624 | 0.576 |
| NCI-H1651 | 0.437 | 0.483 | 0.463 | 0.335 | 0.0886 | 0.177 | 0.189 | 0.176 | 0.166 | 0.135 | 0.39 | 0.58 | 0.571 | 0.518 | 0.223 | 0.182 | 0.164 | 0.189 | 0.224 | 0.179 |
| NCI-H1666 | 0.892 | 0.786 | 0.811 | 0.701 | 0.501 | 0.748 | 0.7 | 0.767 | 0.741 | 0.501 | 0.735 | 0.914 | 0.839 | 0.846 | 0.792 | 0.769 | 0.726 | 0.766 | 0.691 | 0.585 |
| NCI-H1734 | 0.524 | 0.508 | 0.537 | 0.184 | 0.12 | 0.562 | 0.645 | 0.554 | 0.408 | 0.118 | 0.409 | 0.384 | 0.409 | 0.238 | 0.199 | 0.609 | 0.624 | 0.601 | 0.546 | 0.505 |
| NCI-H1755 | 0.448 | 0.471 | 0.396 | 0.296 | 0.184 | 0.877 | 0.89 | 0.856 | 0.514 | 0.253 | 0.428 | 0.381 | 0.462 | 0.32 | 0.294 | 0.873 | 0.901 | 0.868 | 0.787 | 0.839 |
| NCI-H1792 | 0.659 | 0.732 | 0.665 | 0.132 | 0.0222 | 0.437 | 0.501 | 0.431 | 0.374 | 0.031 | 0.624 | 0.888 | 0.722 | 0.0892 | 0.0324 | 0.423 | 0.334 | 0.299 | 0.369 | 0.405 |
| NCI-H1793 | 0.412 | 0.373 | 0.452 | 0.129 | 0.0904 | 0.845 | 1.06 | 0.667 | 0.138 | 0.0993 | 0.698 | 1.03 | 0.644 | 0.137 | 0.0795 | 0.869 | 0.833 | 0.939 | 0.784 | 0.783 |
| NCI-H1915 | 0.76 | 0.698 | 0.754 | 0.304 | 0.352 | 0.256 | 0.255 | 0.262 | 0.223 | 0.126 | 0.523 | 0.553 | 0.452 | 0.37 | 0.137 | 0.269 | 0.256 | 0.252 | 0.257 | 0.247 |
| NCI-H1944 | 0.539 | 0.524 | 0.469 | 0.229 | 0.117 | 0.416 | 0.406 | 0.467 | 0.29 | 0.207 | 0.566 | 0.652 | 0.611 | 0.365 | 0.312 | 0.412 | 0.427 | 0.443 | 0.418 | 0.392 |
| NCI-H1975 | 0.692 | 0.872 | 0.746 | 0.429 | 0.174 | 0.75 | 0.842 | 0.726 | 0.389 | 0.115 | 0.281 | 0.281 | 0.286 | 0.187 | 0.137 | 0.78 | 0.695 | 0.746 | 0.744 | 0.288 |
| NCI-H1993 | 0.712 | 0.622 | 0.775 | 0.33 | 0.3 | 1.01 | 1.24 | 0.894 | 0.829 | 0.419 | 0.58 | 0.65 | 0.592 | 0.516 | 0.351 | 0.95 | 1.15 | 0.984 | 1.01 | 1.11 |
| NCI-H2085 | 0.95 | 1.09 | 0.882 | 0.272 | 0.186 | 0.783 | 0.792 | 0.755 | 0.429 | 0.28 | 0.994 | 0.982 | 0.952 | 0.325 | 0.258 | 0.726 | 0.784 | 0.747 | 0.816 | 0.708 |
| NCI-H2087 | 1.27 | 1.4 | 1.39 | 0.703 | 0.176 | 0.538 | 0.629 | 0.553 | 0.303 | 0.0973 | 0.63 | 0.652 | 0.652 | 0.566 | 0.162 | 0.588 | 0.596 | 0.436 | 0.451 | 0.226 |
| NCI-H2126 | 0.982 | 1.06 | 1.02 | 0.825 | 0.873 | 0.865 | 0.91 | 0.908 | 0.801 | 0.518 | 0.696 | 0.649 | 0.633 | 0.569 | 0.426 | 0.872 | 0.851 | 0.903 | 0.865 | 0.918 |
| NCI-H2170 | 0.875 | 0.971 | 0.556 | 0.243 | 0.114 | 0.512 | 0.65 | 0.577 | 0.263 | 0.102 | 0.266 | 0.246 | 0.248 | 0.193 | 0.181 | 0.574 | 0.607 | 0.574 | 0.585 | 0.655 |
